In patent US20150119363A1, “METHODS OF TREATING BACTERIAL INFECTIONS” (Rampex Pharmaceuticals, Inc., priority 2012, published 2015):

Experiments:
[1] = system: E. coli EC1061 (NDM-1 CMY-6); assay: Aztreonam/Tigemonam MIC at various concentrations of BLI; type: cell-based; details: EC1061
Description: MIC values for each bacterial strain were measured for each antimicrobial compound at various concentrations of each BLI. […]

ECL1004 NMC-A = assay: Dose titration biapenem potentiation assay (MPC1); type: cell-based, Enterobacter cloacae; details: biapenem 1 μg/mL
Outline: (§1)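 Growth of carbapenemase-expressing strains measured with biapenem held at a sub-inhibitory 1 μg/mL; BLI compounds titrated from a top concentration of 40 μg/mL. MPC1 is the inhibitor concentration that restores growth inhibition by biapenem.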

[2] = biological target: T1, KPC-2 (Klebsiella pneumoniae KP1008 lysate) (Klebsiella pneumoniae, UniProt Q9F663); assay: Inhibition of biapenem hydrolysis by bacterial lysate; type: biochemical
T1 construct: Lysates were prepared from bacteria expressing various β-lactamases as a source of enzymes; endogenous in cells; host or cells: Klebsiella pneumoniae strains KP1004 and KP1008 (freeze-thaw lysate supernatants)
Description: (§2) The activity of β-lactamase inhibitors to inhibit hydrolysis of biapenem was studied. Lysates were prepared from bacteria expressing various β-lactamases as a source of enzymes. Bacterial lysates were prepared as follows. A single colony from the fresh overnight plate was transferred to 5 mL of LB broth and grown to OD600=0.6-0.8. Next, this culture was transferred to 500 mL of LB and grown to OD600=0.7-0.9. Cells were pelleted by centrifugation at 5000 RPM (JA-14 rotor) for 15 minutes at room temperature. The pellet was resuspended in 10 mL of PBS. Five freeze-thaw cycles by putting cells at −20° C. and thawing them at the room temperature were next applied. After the last thaw step cells were spun down at 18K for 30 minutes and the supernatant was collected. This lysate was stored at −20° C.
(§3) Next, the activity of bacterial lysates was optimized for biapenem cleavage as follows. 50 μl of buffer A (50 mM Sodium Phosphate pH=7; 0.5% glucose, 1 mM MgCl2) was added to each well of 96-well UV-transparent plate. 50 μl of lysate was titrated vertically in 96-well plate column to generate 2-fold lysate dilutions. 100 μl of buffer A was added to each well, placed in plate reader at 37° C. and incubated for 15 minutes. 50 μl of 50 μg/mL solutions of biapenem in buffer A (pre-incubated at 37° C. for 15 minutes) were added to each well. Hydrolysis of biapenem was measured at 296 nm. This experiment was used to determine the optimal lysate dilution which produced a linear curve of relative UV signal that decreased to approximately OD=0.3-0.5 over 1 hour.
(§4) Finally, the potency of cyclic boronic acid derivative to inhibit the cleavage of biapenem cleavage by bacterial lysates was determined. 100 μl of buffer A (50 mM Sodium Phosphate pH=7; 0.5% glucose, 1 mM MgCl2) was added to each well of 96-well UV-transparent plate. 50 μl of 6× cyclic boronic acid derivative solution in buffer A was titrated vertically in 96-well plate column to generate 3-fold dilutions. 50 μl of diluted lysate in buffer A (optimal dilution is determined in experiment above) was added, and the plate was incubated in the plate reader at 37° C. for 15 minutes. 50 μl of 50 μg/mL solution of biapenem in buffer A (pre-incubated at 37° C. for 15 minutes) were next added to each well and hydrolysis of biapenem was recorded at 296 nm. EC50 of inhibition was determined by plotting the rate of biapenem cleavage vs. cyclic boronic acid derivative concentration.

[3] = biological target: T2, SME-2 (Serratia marcescens SM1000 lysate) (Serratia marcescens, UniProt P52682); assay: as above; type: biochemical; details: SM1000 SME-2 lysate; read-out: IC50 (μg/mL) of inhibition of biapenem hydrolysis
T2 construct: Lysates were prepared from bacteria expressing various β-lactamases as a source of enzymes
Description: as §2, §3, §4

[4] = biological target: T3, KPC-3 (Escherichia coli EC1007 lysate) (Klebsiella pneumoniae, UniProt Q9F663, H272Y); assay: as above; type: biochemical; details: EC1007 KPC-3 lysate; read-out: IC50 (μg/mL) of inhibition of biapenem hydrolysis
T3 construct: Lysates were prepared from bacteria expressing various β-lactamases as a source of enzymes; endogenous in cells; host or cells: Escherichia coli strain EC1007 (freeze-thaw lysate supernatant)
Description: as §2, §3, §4

[5] = biological target: T4, KPC-2 (Klebsiella pneumoniae KP1004 lysate) (Klebsiella pneumoniae, UniProt Q9F663); assay: as above; type: biochemical
T4 construct: Lysates were prepared from bacteria expressing various β-lactamases as a source of enzymes; endogenous in cells; host or cells: Klebsiella pneumoniae strains KP1004 and KP1008 (freeze-thaw lysate supernatants)
Description: as §2, §3, §4

[6] = system: strains expressing KPC alone or in combination with additional beta-lactamases; assay: Checkerboard assay, Compound 5 with biapenem (summary); type: cell-based; details: highest concentration of Compound 5 10 mg/L
Source text: The potentiation effect is observed by the reduction of the minimum inhibitory concentration of β-lactam antibiotics in the presence of β-lactamase inhibitors (BLIs). […] Methods for Dilution of Antimicrobial Susceptibility Tests for Bacteria That Grow Aerobically—Eighth Edition; Approved Standard. CLSI Document M07-A8, 2009). In this assay, multiple dilutions of two drugs, namely BLI and β-lactam (biapenem), are being tested, alone and in combination, at concentrations equal to, above and below their respective minimal inhibitory concentrations (MICs). BLIs are solubilized in 10% DMSO at 10 mg/mL. Stock solutions are further diluted, according to the needs of a particular assay, in Mueller Hinton Broth (MHB). Stock solution can be stored at −80° C.
The checkerboard (CB) assay is performed in microtiter plates. Biapenem is diluted in the x axis, each column containing a single concentration of antibiotic. BLIs are diluted in the y axis, each row containing an equal concentration of BLI. The result of these manipulations is that each well of the microtiter plate contains a unique combination of concentrations of the two agents. […] Microtiter plates are incubated during 20 h at 35° C. and are read using a microtiter plate reader (Molecular Devices) at 650 nm as well as visual observation using a microtiter plate reading mirror.

[7] = system: bacterial strains that expressed the beta-lactamase, NDM-1 and CMY-6; assay: Aztreonam/Tigemonam MIC at various concentrations of BLI (summary); type: cell-based
Description: MIC values for each bacterial strain were measured for each antimicrobial compound at various concentrations of each BLI.

EC1007 KPC-3 = assay: Dose titration biapenem potentiation assay (MPC1); type: cell-based, Escherichia coli; details: biapenem 1 μg/mL
Outline: as §1

T1 sequence (Q9F663 25-293 limits assumed): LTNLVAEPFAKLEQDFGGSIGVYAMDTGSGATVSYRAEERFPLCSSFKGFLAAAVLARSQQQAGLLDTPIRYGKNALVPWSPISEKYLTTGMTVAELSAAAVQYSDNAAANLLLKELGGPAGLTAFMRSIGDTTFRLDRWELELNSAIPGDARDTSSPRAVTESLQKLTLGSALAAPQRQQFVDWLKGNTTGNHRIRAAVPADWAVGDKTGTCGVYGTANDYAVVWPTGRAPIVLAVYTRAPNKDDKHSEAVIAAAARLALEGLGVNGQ
T4 sequence (Q9F663 25-293 limits assumed): as above
T2 sequence (P52682 28-294 limits assumed): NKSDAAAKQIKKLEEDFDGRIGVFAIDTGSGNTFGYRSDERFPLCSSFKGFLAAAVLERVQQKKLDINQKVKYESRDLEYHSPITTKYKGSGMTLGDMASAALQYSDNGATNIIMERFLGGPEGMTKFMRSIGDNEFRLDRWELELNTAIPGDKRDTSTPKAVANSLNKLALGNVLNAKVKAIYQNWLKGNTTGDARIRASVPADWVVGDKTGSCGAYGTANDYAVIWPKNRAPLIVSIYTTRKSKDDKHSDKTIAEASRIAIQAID
T3 sequence (Q9F663 25-293 H272Y): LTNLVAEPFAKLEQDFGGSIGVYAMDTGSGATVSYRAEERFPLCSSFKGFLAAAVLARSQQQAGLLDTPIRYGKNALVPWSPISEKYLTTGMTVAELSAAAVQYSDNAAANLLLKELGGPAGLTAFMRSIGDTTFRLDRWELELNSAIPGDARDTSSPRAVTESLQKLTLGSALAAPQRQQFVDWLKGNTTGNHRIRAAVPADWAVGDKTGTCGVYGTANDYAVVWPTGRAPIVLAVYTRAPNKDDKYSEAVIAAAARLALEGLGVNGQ

O=C(O)C[C@@H]1CC[C@H](NC(=O)Cc2cccs2)B(O)O1 [Compound 5, 2-((3R,6S)-2-hydroxy-3-(2-(thiophen-2-yl)acetamido)-1,2-oxaborinan-6-yl)acetic acid]
Aztreonam MIC (μg/ml) in the presence of BLI ([1]; Compound 5 0.31 μg/ml): 4 µg/mL
Aztreonam MIC (μg/ml) in the presence of BLI ([1]; Compound 5 0.63 μg/ml): 4 µg/mL
Aztreonam MIC (μg/ml) in the presence of BLI ([1]; Compound 5 5 μg/ml): 0.5 µg/mL
Aztreonam MIC (μg/ml) in the presence of BLI ([1]; Compound 5 10 μg/ml): 0.5 µg/mL
Aztreonam MIC (μg/ml) in the presence of BLI ([1]; Compound 5 20 μg/ml): 0.5 µg/mL
Aztreonam MIC (μg/ml) in the presence of BLI ([1]; Compound 5 […]): 2 µg/mL
BPM MPC1 ECL1004 NMC-A (ECL1004 NMC-A): X (X = MPC1 of less than 1 μg/mL.)
IC50 [2]: 337 to 3370 nM
IC50 [3]: < 337 nM
IC50 [4]: < 337 nM
IC50 [5]: < 337 nM
potentiation of biapenem [6]: significantly potentiate biapenem
effect on Aztreonam or Tigemonam MICs [7]: decreased the Aztreonam or Tigemonan MICs
BPM MPC1 EC1007 KPC-3 (EC1007 KPC-3): X (X = MPC1 of less than 1 μg/mL.)
